{"source": "patent US6204067A", "about": "“Methods of identifying modulators of the estrogen receptor” (Board of Trustees Operating Michigan State University, priority 1999, dated 2001)", "key": {"[1]": {"test_system": "recycling endosomes of MCF-7/ADR cells", "test": "In vitro acidification of recycling endosomes (FITC-transferrin)", "assay_type": "biochemical", "method": "Acidification from the recycling endosomal fraction was monitored by first incubating cells with FITC-transferrin for 30 minutes before lysis and isolation of microsomes. Acidification was monitored by excitation of the FITC fluorophore at 450 and 488 nm and measuring λem =520 nm as described previously.\nTo specifically examine the acidification of the endosomes in vitro, in vitro acidification was assayed using FITC-transferrin which is constrained by the transferrin receptor to the endocytic pathway. MCF-7/ADR cells were incubated with FITC-transferrin before lysis and isolation of microsomes. Since this assay is not based on the redistribution of probes, it further serves as verification that AO quenching resulted from vesicular acidification. Upon addition of ATP, there was a decrease in the ratio of the FITC-emission (FIG. 1C). This signal was the consequence of acidification, since it was reversed upon the addition of nigericin."}, "[2]": {"test": "Liposome chloride concentration (lucigenin)"}, "yeast vacuoles [3]": {"test_system": "yeast vacuoles", "test": "Vm of yeast vacuoles (Oxonol V)", "assay_type": "biochemical, S. cerevisiae", "details": "10 μM, KCl or K-gluconate buffer, 2.5 mM ATP", "description": "Oxonol V is a membrane permeable anionic fluorescent probe that accumulates into the inner leaflet of vesicles with positive Vm, resulting in quenching of fluorescence. Vacuoles were suspended in chloride or gluconate vesicle buffer with 1 μM Oxonol V. Fluorescence was measured with a λex =600 nm and λem =630 nm. After fluorescence has equilibrated, vacuoles were added and the fluorescence is allowed to re-equilibrate. Then, 1 mM Tris-ATP was added and the resulting positive Vm was manifested in fluorescence quenching.\nThe fluorescent dye Oxonal V was used to monitor Vm.\nThe Vm was monitored in either KCl or K-gluconate buffer (FIG. 3A)."}, "[4]": {"test_system": "E. coli inverted membrane vesicles", "test": "Acidification of E. coli inverted membrane vesicles (acridine orange)", "assay_type": "biochemical", "details": "0.63 μM, 2 μM, 10 μM; similar dose dependence as mammalian and yeast vesicles", "method": "InV were prepared from the DH5α strain as described [Simon and Blobel, Cell 69:677-684 (1992)]. Acidification was measured using AO as described above.\nUnlike mammalian or yeast vesicles, InV utilize the F0 F1 -ATPase for acidification and are composed of different types of lipids, including an abundance of cardiolipin and a lack of sterols."}, "[5]": {"details": "NMR in 10% Triton solution; cited from earlier work"}, "yeast vATPase": {"test_system": "yeast vATPase", "test": "Bafilomycin-inhibitable ATPase activity of yeast vATPase", "assay_type": "biochemical, S. cerevisiae", "details": "5 μM, chloride and gluconate buffer", "method": "Vacuoles were diluted in KCl or K-gluconate vesicle buffer. […] Each of the four resulting samples was again split into two and either carrier or […] bafilomycin A1 was added. Next, 2 mM Tris-ATP was added to each sample and the vacuoles were incubated at 30° C. for 15 minutes. To measure the phosphate concentration from ATP hydrolysis, equal volume of Taussky-Shorr Reagent (1% w/v ainmoniummolybdate (w/v), 2.7% v/v sulfuric acid, and 5% w/v ferrous sulfate hexahydrate) was added and the samples were developed for 15 minutes. The A660 was measured (Spectronic Genesys 2) which is linearly related to phosphate concentration. The bafilomycin inlubtable ATPase activity was taken as the difference between the ATPase activity of each condition with or without 100 nM bafilomycin A1.\nReplacing chloride with gluconate decreased the bafilomycin-inhibitable ATPase activity (FIG. 3B), further confirming that chloride provided the counter-ion transport to dissipate the Vm."}, "[6]": {"method": "The lumenal pH (pHL) of liposomes was assayed with pyranine, a fluorescent dye with a pKa~7.3 and a λex =405 nm in its acid form (-3 charge) and a λex =455 nm in its basic form (-4 charge). To prepare pyranine loaded liposomes, lipids (2 mg POPC, 1 mg cholesterol) supplied in chloroform suspension were dried in a round bottom flask under argon for 2 hours. The lipids were then resuspended in acidic or alkaline liposome buffer (300 mM KCl, 20 mM MES, 20 mM MOPS, 20 mM Tricine titrated with KOH to either pH 6.2 or pH 8.1) containing 0.5 mM pyranine. The suspension was incubated at room temperature overnight, then freeze-thawed 6×. Unilamellar liposomies were prepared by extrusion 3× through 2 stacked 100 nm Nucleopore (Corning/Costar Scientific, Acton, Mass.) polycarbonate filters in an Avestin (Vancouver, BC) extruder at 600 PSI.\nThe pyranine fluorescence was calibrated as a function of pH by diluting the liposomes with pH 6.2 into a weakly buffered solution of identical pH (300 mM KCl, 1 mM MES, 1 mM MOPS, 1 mM Tricine, pH 6.2), 1 μM nigericin to allow rapid equilibration with external pH and 5 mM DPX to quench external pyranine. The ratio of the fluorescence emission at λem =510 nm was monitored with dual excitation wavelengths of λex =405 nm and λex =455 nm. Sequential aliquots of 0.1 mM glycylglycine, pH 8.4 were added to increase pH (See FIG. 5). The fluorescence was measured after each addition and the pH was measured using a pH meter. […] The cahiration curve for the liposomes of lumenal pH 8.1 was generated identically except sequential aliquots of 0.1 mM K-MES pH 5.0 were added for titration and the curve was generated between pH 8.1 and pH 6.4.\nTo measure the rate of pH dissipation of liposomes with lumenal pH=6.2, the liposomes were diluted in weakly buffered solution of identical pH as described above, but with no nigericin. […] The external pH was shifted to pH 7.3 by addition of 5 mM glycylglycine pH 8.4 and the fluorescence ratio monitored. After 10 minutes, 1 μM nigericin was added to dissipate the remaining pH gradient. The pHL was calculated using the equation pH=x*log(λex =405 nm/[…])+c, were x and c are constants from the least square fit of the titration curve. To measure the rate of pH dissipation of liposomes with pHL =8.1, the identical procedure was followed except 5 mM K-MES pH 5.0 was added to shift the external pH to 6.9.\nLiposomes were loaded with pyranine, a hydrophilic, non-permeable fluorescent pH indicator to assay proton permeability. […] Two steps were taken to ensure that only pHL was measured and to permit the discrimination between dissipation of pH gradient and the lysis or dye leakage from liposomes."}, "yeast vacuoles [7]": {"test_system": "yeast vacuoles", "test": "Acidification of yeast vacuoles (acridine orange)", "assay_type": "biochemical, S. cerevisiae", "method": "Vacuoles from S. cerevisiae were prepared from the protease deficient strain BJ2407 (Yeast Genetic Stock Center, University of California, Berkeley) by sequential floatation through 12% and 8% Ficoll 400 cushion as described previously [Roberts et al., Methods Enzymol, 194:644-661 (1991)] with the single modification that 1× protease inhibitor mix and 1 mM DTT was included in each step. […] Acidification was measured using AO as described above. For acidification in chloride-free solution, gluconate or glutamate was used in vesicle buffer instead of chloride.\nATP (1.5 mM) was added at 50 sec to initiate acidification and at 400 sec nigericin (1 μM) was added to dissipate pH gradients."}}, "note": "Entries after “also recorded” stand apart in the source; their conditions may differ."}
{"smiles": "CC/C(=C(\\c1ccccc1)c1ccc(OCCN(C)C)cc1)c1ccccc1", "note": "[tamoxifen]", "values": [{"measurement": "effect on ATP-dependent acidification of recycling endosomes", "setting": "[1]; 2.5 μM added after ATP", "value": "partially reversed the acidification"}, {"measurement": "effect on ATP-dependent acidification of recycling endosomes", "setting": "[1]; concentration raised an additional 2.5 μM", "value": "farher reduced"}, {"measurement": "rate of chloride influx in the presence of valinomycin", "setting": "[2]; 4 μM tamoxifen with 1 μM valinomycin, 50 mM KCl", "value": "increased the rate of chloride influx"}, {"measurement": "rate of chloride influx into liposomes", "setting": "[2]; after addition of 50 mM KCl, tamoxifen 2, 4, 8 μM, valinomycin 1 μM", "value": "dose dependent increase in the rate of chloride influx"}, {"measurement": "effect on Vm generated by the vATPase", "setting": "yeast vacuoles [3]", "value": "significantly decreased the Vm"}, {"measurement": "effect on ATP-dependent acidification of InV", "setting": "[4]", "value": "inhibited acidification"}, {"measurement": "pKa", "setting": "[5]", "value": 6.9}, {"measurement": "effect on bafilomycin-inhibitable ATPase activity", "setting": "yeast vATPase", "value": "increase of ATPase activity"}, {"measurement": "effect of addition on pHL without pre-existing pH gradient", "setting": "[6]; pHL 6.2 = external pH, tamoxifen 2 μM, 8 μM, NH4Cl 5 mM", "value": "alkalinization of liposomes, followed by more rapid pH equilibration"}, {"measurement": "effect on pH equilibration with chloride included", "setting": "[6]; pHL 8.1, 300 mM K-glutamate plus 90 mM KCl, external pH shifted to 6.9", "value": "more rapid pH equilibration"}, {"measurement": "effect on dissipation of pH in the absence of chloride", "setting": "[6]; pHL 8.1, 300 mM K-glutamate, external pH shifted to 6.9", "value": "no effect on the dissipation of pH"}, {"measurement": "rate of pH gradient dissipation, alkaline lumen", "setting": "[6]; pHL 8.1, external pH shifted to 6.9, tamoxifen 0.5-8 μM, NH4Cl 5 mM, FCCP 1 μM, valinomycin 1 μM", "value": "dissipated more quickly with increasing concentrations; also recorded: faster than saturating concentration of FCCP"}, {"measurement": "effect of addition to pre-acidified vacuoles", "setting": "yeast vacuoles [7]; added at 250 sec, tamoxifen 2 μM, ammonium 1 mM", "value": "rapid alkaline step followed by slower alkalinization"}, {"measurement": "concentration giving complete inhibition of acidification", "setting": "yeast vacuoles [7]; pre-equilibrated, 1.5 mM ATP, KCl buffer", "value": 8, "unit": "µM"}, {"measurement": "inhibition of vacuole acidification", "setting": "yeast vacuoles [7]; pre-equilibrated, tamoxifen 2 μM or 8 μM, ammonium chloride 1 mM", "value": "dose dependent inhibition of acidification"}]}
